Test results from US6730295B2, “Anionic polymers as species specific antibacterial agents” (Genzyme Corporation, priority 2000, dated 2004).

Columns and labels:
Test in all cases: MIC assay (NCCLS broth microdilution)
Format in all cases: cell-based
Branhamella catarrhalis = details: species 6 = Branhamella catarrhalis; 18-24 hr at 35° C., Mueller-Hinton broth
Procedure: (§1) The minimum inhibitory concentration (MIC) assay is performed according to the Performance Standards for Antimicrobial Susceptibility Testing, 1998, vol. M 100-S8, Eighth Informational Supplement, NCCLS, 940 West Valley Road, Suite 1400, Wayne, Pa. 19087.
(§2) Polymers to be tested were dissolved in 0.85% saline to a final concentration of either 830 or 1000 μg/ml, the pH was adjusted to 7.0 and the solution was filter-sterilized through a 0.22 μm filter. Two-fold serial dilutions of polymer were prepared in Mueller-Hinton broth with cations aliquotted into 96-well microtiter plates. The plates were then inoculated with […] of target organism, and incubated 18-24 hr at 35° C. The optical density (OD) was then read at 590 nm, and microorganism growth was scored (OD >0.1 is considered to be growth; OD <0.1 is considered growth inhibition). The MIC value was defined as the lowest concentration of compound which inhibits growth.

E. Faecium = details: species 2 = E. Faecium; 18-24 hr at 35° C., Mueller-Hinton broth
Procedure: as §1, §2

E. coli = details: species 1 = E. coli; 18-24 hr at 35° C., Mueller-Hinton broth
Procedure: as §1, §2

N. meningitidis = details: species 5 = N. meningitidis; 18-24 hr at 35° C., Mueller-Hinton broth
Procedure: as §1, §2

S. pneumoniae = details: species 4 = S. pneumoniae; 18-24 hr at 35° C., Mueller-Hinton broth
Procedure: as §1, §2

S. sanguis = details: species 3 = S. sanguis; 18-24 hr at 35° C., Mueller-Hinton broth
Procedure: as §1, §2

minimum inhibitory concentration (MIC) (Branhamella catarrhalis): 9
minimum inhibitory concentration (MIC) (E. Faecium): >83
minimum inhibitory concentration (MIC) (E. coli): >83
minimum inhibitory concentration (MIC) (N. meningitidis): 28
minimum inhibitory concentration (MIC) (S. pneumoniae): 28
minimum inhibitory concentration (MIC) (S. sanguis): 28
Structure (SMILES): CCCCCCCCCCCCOS(=O)(=O)[O-].[Na+] [sodium dodecyl sulfate]
